Measured values: US5210193A, “Piperazine derivatives” (American Cyanamid Company, priority 1990, dated 1993)
Converted amounts (≈) assume the structure as drawn. Where two headings read alike, the source gives them in different places.

What was measured:
Test in all cases: in vitro antibacterial MIC, agar plate dilution
Format in all cases: cell-based
Citrobacter div. K 82-24 = settings: Citrobacter, DIV.K8224, 18 h, 35° C., read-out: MIC
Method in brief: (§1)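 Read-out is visible growth inhibition on Mueller-Hinton agar dilution plates incubated 18 hours at 35° C after inoculation of ~10^4 CFU (Steers device), with MIC reported in mcg/ml.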

[1] = tested on: Enterobacter cloacae K 84-10; settings: Enterobacter cloacae, K8410, 18 h, 35° C., read-out: MIC
Method in brief: as §1

[2] = tested on: Enterobacter cloacae MOR 84-30; settings: Enterobacter cloacae, MOR8430, 18 h, 35° C., read-out: MIC
Method in brief: as §1

[3] = tested on: Escherichia coli CMC 84-11; settings: Escherichia coli, CMC8411, 18 h, 35° C., read-out: MIC
Method in brief: as §1

[4] = tested on: Escherichia coli CMC 84-50; settings: Escherichia coli, CMC8450, 18 h, 35° C., read-out: MIC
Method in brief: as §1

[5] = tested on: Escherichia coli MOR 84-20; settings: Escherichia coli, MOR8420, 18 h, 35° C., read-out: MIC
Method in brief: as §1

[6] = tested on: Escherichia coli VGH 84-19; settings: Escherichia coli, VGH8419, 18 h, 35° C., read-out: MIC
Method in brief: as §1

[7] = tested on: Klebsiella pneumoniae CMC 84-31; settings: Klebsiella pneumoniae, CMC8431, 18 h, 35° C., read-out: MIC
Method in brief: as §1

[8] = tested on: Klebsiella pneumoniae IO 83-5; settings: Klebsiella pneumoniae, IO835, 18 h, 35° C., read-out: MIC
Method in brief: as §1

[9] = tested on: Klebsiella pneumoniae MOR 84-24; settings: Klebsiella pneumoniae, MOR8424, 18 h, 35° C., read-out: MIC
Method in brief: as §1

[10] = tested on: Morganella morganii CMC 84-37; settings: Morganella morganii, CMC8437, 18 h, 35° C., read-out: MIC
Method in brief: as §1

[11] = tested on: Morganella morganii CMC 84-38; settings: Morganella morganii, CMC8438, 18 h, 35° C., read-out: MIC
Method in brief: as §1

[12] = tested on: Proteus rettgeri IO 83-21; settings: Providencia rettgeri, IO8321, 18 h, 35° C., read-out: MIC
Method in brief: as §1

[13] = tested on: Providencia stuarti CMC 83-3; settings: Providencia, CMC833, 18 h, 35° C., read-out: MIC
Method in brief: as §1

[14] = tested on: Pseudomonas aeruginosa CMC 83-20; settings: Pseudomonas aeruginosa, CMC8320, 18 h, 35° C., read-out: MIC
Method in brief: as §1

[15] = tested on: Pseudomonas aeruginosa K 84-16; settings: Pseudomonas aeruginosa, K8416, 18 h, 35° C., read-out: MIC
Method in brief: as §1

[16] = tested on: Pseudomonas aeruginosa LL-1244; settings: Pseudomonas aeruginosa, LL1244, 18 h, 35° C., read-out: MIC
Method in brief: as §1

[17] = tested on: Pseudomonas aeruginosa VGH 84-3; settings: Pseudomonas aeruginosa, VGH843, 18 h, 35° C., read-out: MIC
Method in brief: as §1

[18] = tested on: Pseudomonas aeruginosa VGH 84-4; settings: Pseudomonas aeruginosa, VGH844, 18 h, 35° C., read-out: MIC
Method in brief: as §1

[19] = tested on: Serratia marcescens CMC 83-74; settings: Serratia marcescens, CMC8374, 18 h, 35° C., read-out: MIC
Method in brief: as §1

[20] = tested on: Serratia marcescens K 84-18; settings: Serratia marcescens, K8418, 18 h, 35° C., read-out: MIC
Method in brief: as §1

[21] = tested on: Serratia marcescens VGH 84-30; settings: Serratia marcescens, VGH8430, 18 h, 35° C., read-out: MIC
Method in brief: as §1

[22] = tested on: Staphylococcus aureus ATTC 29213; settings: 35° C.
Method in brief: as §1

[23] = tested on: Staphylococcus aureus CMC 83-131; settings: Staphylococcus aureus, CMC83131, 18 h, 35° C., read-out: MIC
Method in brief: as §1

[24] = tested on: Staphylococcus aureus K 82-26; settings: Staphylococcus aureus, K8226, 18 h, 35° C., read-out: MIC
Method in brief: as §1

[25] = tested on: Staphylococcus aureus Smith; settings: Staphylococcus aureus, 18 h, 35° C., read-out: MIC
Method in brief: as §1

[26] = tested on: Staphylococcus aureus VGH 84-45; settings: Staphylococcus aureus, VGH8445, 18 h, 35° C., read-out: MIC
Method in brief: as §1

[27] = tested on: Staphylococcus aureus VGH 84-47; settings: Staphylococcus aureus, VGH8447, 18 h, 35° C., read-out: MIC
Method in brief: as §1

[28] = tested on: Streptococcus faecalis CMC 83-120; settings: Enterococcus faecalis, CMC83120, 18 h, 35° C., read-out: MIC
Method in brief: as §1

[29] = tested on: Streptococcus faecalis UCI 85-19; settings: Enterococcus faecalis, UCI8519, 18 h, 35° C., read-out: MIC
Method in brief: as §1

[30] = tested on: Streptococcus faecalis UCI 85-30; settings: Enterococcus faecalis, UCI8530, 18 h, 35° C., read-out: MIC
Method in brief: as §1

[31] = tested on: Streptococcus faecalis VGH 84-65; settings: Enterococcus faecalis, VGH8465, 18 h, 35° C., read-out: MIC
Method in brief: as §1

[32] = tested on: Escherichia coli ATCC 25922; settings: Escherichia coli, ATCC25922, 18 h, 35° C., read-out: MIC
Method in brief: as §1

[33] = Staphylococcus aureus, ATTC29213, 18 h, read-out: MIC

`O=C(O)c1cn(C2CC2)c2cc(N3CCNC(c4cc[nH]n4)C3)c(F)cc2c1=O` (stereo not drawn) [Example 121, 1-Cyclopropyl-6-fluoro-1,4-dihydro-4-oxo-7-[3-(1H-pyrazol-3-yl)-1-piperazinyl]-3-quinolinecarboxylic acid] was tested, and the MIC (Citrobacter div. K 82-24) was 0.25 µg/mL (≈ 0.629 µM), the MIC [1] was 0.25 µg/mL (≈ 0.629 µM) and the MIC [2] was 4 µg/mL (≈ 10.1 µM). For the same compound, the MIC [3] was 0.06 µg/mL (≈ 0.151 µM), the MIC [4] was 0.25 µg/mL (≈ 0.629 µM) and the MIC [5] was 0.25 µg/mL (≈ 0.629 µM). The MIC [6] was 0.25 µg/mL (≈ 0.629 µM), the MIC [7] was 0.25 µg/mL (≈ 0.629 µM) and the MIC [8] was 1 µg/mL (≈ 2.52 µM). It also gave an MIC [9] of 1 µg/mL (≈ 2.52 µM), an MIC [10] of 1 µg/mL (≈ 2.52 µM) and an MIC [11] of 0.5 µg/mL (≈ 1.26 µM). It also gave an MIC [12] of 1 µg/mL (≈ 2.52 µM), an MIC [13] of over 16 µg/mL and an MIC [14] of 16 µg/mL (≈ 40.3 µM). For the same compound, the MIC [15] was over 16 µg/mL, the MIC [16] was 16 µg/mL (≈ 40.3 µM) and the MIC [17] was over 16 µg/mL. For the same compound, the MIC [18] was 8 µg/mL (≈ 20.1 µM), the MIC [19] was over 16 µg/mL and the MIC [20] was 0.25 µg/mL (≈ 0.629 µM). It also gave an MIC [21] of 32 µg/mL (≈ 80.5 µM), an MIC ([22]; 18 hours) of 2 µg/mL (≈ 5.03 µM) and an MIC [22, 33] of 1 µg/mL (≈ 2.52 µM). The MIC [23] was 2 µg/mL (≈ 5.03 µM), the MIC [24] was 1 µg/mL (≈ 2.52 µM) and the MIC [25] was 0.12 µg/mL (≈ 0.302 µM). It also gave an MIC [26] of 0.5 µg/mL (≈ 1.26 µM), an MIC [27] of 1 µg/mL (≈ 2.52 µM) and an MIC [28] of 5 µg/mL (≈ 12.6 µM). It also gave an MIC [29] of 2 µg/mL (≈ 5.03 µM), an MIC [30] of 2 µg/mL (≈ 5.03 µM) and an MIC [31] of 2 µg/mL (≈ 5.03 µM).

In the case of `CCn1cc(C(=O)O)c(=O)c2cc(F)c(N3CCNC(c4cccnc4)C3)cc21` (stereo not drawn) [Example 122], the MIC (Citrobacter div. K 82-24) is reported as 2 µg/mL (≈ 5.05 µM), the MIC [1] is reported as 1 µg/mL (≈ 2.52 µM) and the MIC [2] is reported as 16 µg/mL (≈ 40.4 µM). The MIC [3] was 0.25 µg/mL (≈ 0.631 µM), the MIC [4] was 2 µg/mL (≈ 5.05 µM) and the MIC [5] was 1 µg/mL (≈ 2.52 µM). For the same compound, the MIC [6] was 1 µg/mL (≈ 2.52 µM), the MIC [7] was 4 µg/mL (≈ 10.1 µM) and the MIC [8] was 2 µg/mL (≈ 5.05 µM). For the same compound, the MIC [9] was 4 µg/mL (≈ 10.1 µM), the MIC [10] was 0.25 µg/mL (≈ 0.631 µM) and the MIC [11] was 1 µg/mL (≈ 2.52 µM). The MIC [12] was 4 µg/mL (≈ 10.1 µM), the MIC [13] was over 16 µg/mL and the MIC [14] was over 16 µg/mL. It also gave an MIC [15] of over 16 µg/mL, an MIC [16] of 32 µg/mL (≈ 80.7 µM) and an MIC [17] of over 16 µg/mL. It also gave an MIC [18] of 32 µg/mL (≈ 80.7 µM), an MIC [19] of over 16 µg/mL and an MIC [20] of 1 µg/mL (≈ 2.52 µM). The MIC [21] was 32 µg/mL (≈ 80.7 µM), the MIC ([22]; 18 hours) was 1 µg/mL (≈ 2.52 µM) and the MIC [22, 33] was 0.5 µg/mL (≈ 1.26 µM). The MIC [23] was 8 µg/mL (≈ 20.2 µM), the MIC [24] was 1 µg/mL (≈ 2.52 µM) and the MIC [25] was 0.12 µg/mL (≈ 0.303 µM). It also gave an MIC [26] of 0.25 µg/mL (≈ 0.631 µM), an MIC [27] of 1 µg/mL (≈ 2.52 µM) and an MIC [28] of 8 µg/mL (≈ 20.2 µM). The MIC [29] was 4 µg/mL (≈ 10.1 µM), the MIC [30] was 8 µg/mL (≈ 20.2 µM) and the MIC [31] was 8 µg/mL (≈ 20.2 µM).

Compound `CCn1cc(C(=O)O)c(=O)c2cc(F)c(N3CCNC(c4ccncc4)C3)cc21` (stereo not drawn) [Example 123] has an MIC (Citrobacter div. K 82-24) of 4 µg/mL (≈ 10.1 µM), an MIC [1] of 2 µg/mL (≈ 5.05 µM) and an MIC [2] of over 16 µg/mL. For the same compound, the MIC [32] was 1 µg/mL (≈ 2.52 µM), the MIC [3] was 2 µg/mL (≈ 5.05 µM) and the MIC [4] was 4 µg/mL (≈ 10.1 µM). It also gave an MIC [5] of 2 µg/mL (≈ 5.05 µM), an MIC [6] of 2 µg/mL (≈ 5.05 µM) and an MIC [7] of 4 µg/mL (≈ 10.1 µM). The MIC [8] was 8 µg/mL (≈ 20.2 µM), the MIC [9] was 8 µg/mL (≈ 20.2 µM) and the MIC [11] was 2 µg/mL (≈ 5.05 µM). It also gave an MIC [12] of 8 µg/mL (≈ 20.2 µM), an MIC [13] of over 16 µg/mL and an MIC [14] of over 16 µg/mL. It also gave an MIC [15] of over 16 µg/mL, an MIC [16] of 64 µg/mL (≈ 161 µM) and an MIC [17] of over 16 µg/mL. For the same compound, the MIC [18] was 64 µg/mL (≈ 161 µM), the MIC [19] was over 16 µg/mL and the MIC [20] was 8 µg/mL (≈ 20.2 µM). It also gave an MIC [21] of 64 µg/mL (≈ 161 µM), an MIC ([22]; 18 hours) of 1 µg/mL (≈ 2.52 µM) and an MIC [22, 33] of 0.5 µg/mL (≈ 1.26 µM). The MIC [23] was 2 µg/mL (≈ 5.05 µM), the MIC [24] was 16 µg/mL (≈ 40.4 µM) and the MIC [25] was 0.5 µg/mL (≈ 1.26 µM). For the same compound, the MIC [26] was 0.5 µg/mL (≈ 1.26 µM), the MIC [27] was 2 µg/mL (≈ 5.05 µM) and the MIC [28] was over 16 µg/mL. The MIC [29] was 8 µg/mL (≈ 20.2 µM), the MIC [30] was over 16 µg/mL and the MIC [31] was 8 µg/mL (≈ 20.2 µM).
